Reference: patent US7432392B2, “Ester derivatives and medical use thereof” (Japan Tobacco Inc., priority 2003, dated 2008)

Target: T1, Microsomal triglyceride transfer protein (MTP) from bovine liver (Bos taurus, UniProt P55156)
T1 construct: the purified MTP was used for the test; from tissue; host or cells: bovine liver
T1 sequence (P55156 12-887): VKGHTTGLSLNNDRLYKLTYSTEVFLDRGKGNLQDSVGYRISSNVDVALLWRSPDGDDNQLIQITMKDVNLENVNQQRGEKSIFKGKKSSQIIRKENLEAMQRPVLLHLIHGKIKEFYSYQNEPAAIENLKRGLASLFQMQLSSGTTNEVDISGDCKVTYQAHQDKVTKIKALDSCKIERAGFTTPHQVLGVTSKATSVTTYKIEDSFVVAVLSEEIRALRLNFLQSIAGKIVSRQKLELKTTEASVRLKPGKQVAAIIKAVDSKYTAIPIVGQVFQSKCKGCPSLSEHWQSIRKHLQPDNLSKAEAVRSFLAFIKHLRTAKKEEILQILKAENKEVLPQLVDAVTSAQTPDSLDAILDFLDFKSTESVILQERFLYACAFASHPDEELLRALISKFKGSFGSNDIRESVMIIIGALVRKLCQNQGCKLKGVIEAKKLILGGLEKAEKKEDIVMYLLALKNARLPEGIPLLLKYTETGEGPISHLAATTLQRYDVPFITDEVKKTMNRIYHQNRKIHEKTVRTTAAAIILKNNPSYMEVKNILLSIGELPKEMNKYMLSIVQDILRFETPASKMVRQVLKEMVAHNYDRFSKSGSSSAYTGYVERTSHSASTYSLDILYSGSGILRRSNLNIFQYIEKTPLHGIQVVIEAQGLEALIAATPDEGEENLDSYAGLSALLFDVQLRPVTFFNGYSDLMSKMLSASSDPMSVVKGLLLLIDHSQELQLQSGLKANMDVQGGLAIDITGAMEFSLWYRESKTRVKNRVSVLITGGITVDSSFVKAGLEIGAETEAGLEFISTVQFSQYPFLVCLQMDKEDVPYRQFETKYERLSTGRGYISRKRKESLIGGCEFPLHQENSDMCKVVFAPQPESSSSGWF
T1 sequence (P05307 21-510 partner): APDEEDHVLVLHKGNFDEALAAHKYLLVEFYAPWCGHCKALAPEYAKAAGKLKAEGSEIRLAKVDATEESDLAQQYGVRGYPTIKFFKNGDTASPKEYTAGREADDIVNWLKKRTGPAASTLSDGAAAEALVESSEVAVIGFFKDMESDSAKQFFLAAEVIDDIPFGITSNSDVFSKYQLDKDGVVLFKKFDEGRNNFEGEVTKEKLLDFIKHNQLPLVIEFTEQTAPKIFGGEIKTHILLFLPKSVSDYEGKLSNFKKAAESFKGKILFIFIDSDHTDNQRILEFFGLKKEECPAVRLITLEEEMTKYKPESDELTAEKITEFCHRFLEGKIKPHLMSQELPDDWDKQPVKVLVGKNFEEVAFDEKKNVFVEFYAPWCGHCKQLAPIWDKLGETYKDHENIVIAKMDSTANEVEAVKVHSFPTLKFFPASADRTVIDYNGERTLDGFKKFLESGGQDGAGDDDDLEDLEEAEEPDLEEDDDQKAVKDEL
Experiment: Inhibition of interliposomal triglyceride (TG) transfer activity by MTP
Format: biochemical
Conditions: MTP-mediated TG transfer between donor and acceptor liposomes, 37° C., one hour
Experimental: Microsomal triglyceride transfer protein (MTP) from bovine liver was partially purified in such a way described below. A buffer (50 mM Tris, 250 mM sucrose, 1 mM EDTA, 0.02% NaN3 (pH 7.4)) for making a homogenate preparation was added to bovine liver, and the mixture was homogenated under ice-cooling, then centrifuged at 10,000×g (4° C., 30 minutes) The supernatant was adjusted to pH 5.1 with hydrochloric acid, and stirred for 30 minutes. The solution was further centrifuged at 10,000×g (4° C., 30 minutes), and 1 mM Tris buffer was added to the precipitated residue, and the mixture was adjusted to pH 8.6 with sodium hydroxide. After addition of 2.7 M ammonium sulfate solution, the mixture was stirred for 30 minutes, then centrifuged at 10,000×g (4° C., 40 minutes). The resulting supernatant was served as a crude extraction fraction of MTP and stored at −80° C. under freezing. In its practical use, the crude extraction fraction of MTP was purified by column chromatography on diethylaminoethyl (DEAE) Sepharose using FPLC (Fast Performance Liquid Chromatography) system, and the purified MTP was used for the test.
Small unilamellar-vesicle (SUV) liposome (donor, 0.25 mol % triolein, 5 mol % cardiolipin) labeled with ^14C-triolein and non-labeled SUV liposome (acceptor, 0.25 mol % triolein) were prepared. A fixed amount of donor and acceptor, and MTP were mixed with a sample dissolved in DMSO or with DMSO. The mixture was incubated in a 15 mM Tris hydrochloride buffer (pH 7.4) containing 40 mM sodium chloride, 1 mM EDTA (ethylenediaminetetraacetic acid), 0.02% NaN3 and 0.5% bovine serum albumin at 37° C. for one hour. After completion of the incubation, a suspension of DEAE cellulose (50% v/v) in 15 mM Tris hydrochloride buffer (pH 7.4) was added to the above solution, and the mixture was centrifuged to separate the donor and the acceptor. The radioactivity in the acceptor was measured by liquid scintillation counter. The value obtained by subtracting the radioactivity in the blank from the amount of radioactivity in the acceptor of a DMSO group was determined as MTP-mediated TG transfer activity, and it was compared with the value obtained by subtracting the radioactivity in the blank from the radioactivity in a sample group. The blank was prepared by adding 15 mM Tris-HCl buffer (pH 7.4) in place of MTP. Inhibition rate (%) was calculated from the values obtained according to the following equation.
Inhibition rate (%)=100×(1 minus ((radioactivity of sample group minus radioactivity of blank group)/(radioactivity of DMSO group minus radioactivity of blank group))). 50% Inhibition rate (IC50) was determined on the basis of the above equation.

`CCOC(=O)C(COC(=O)Cc1ccc(NC(=O)c2ccc(C)cc2-c2ccc(C(F)(F)F)cc2)c(OC(C)=O)c1)(C(=O)OCC)c1ccccc1` [Example 1-5] gave an IC50 of less than 10 nM.
`CCOC(=O)C(COC(=O)Cc1ccc(NC(=O)c2ccc(C)cc2-c2ccc(C(F)(F)F)cc2)c(OC(=O)CC)c1)(C(=O)OCC)c1ccccc1` [Example 1-6] showed an IC50 of less than 10 nM.
With `CCCC(=O)Oc1cc(CC(=O)OCC(C(=O)OCC)(C(=O)OCC)c2ccccc2)ccc1NC(=O)c1ccc(C)cc1-c1ccc(C(F)(F)F)cc1` [Example 1-7] the IC50 was less than 10 nM.
`CCOC(=O)C(COC(=O)Cc1ccc(N(C)C(=O)c2ccccc2-c2ccc(C(F)(F)F)cc2)c(OC(C)=O)c1)(C(=O)OCC)c1ccccc1` [Example 1-8] was tested, and the IC50 was less than 10 nM.
`CCOC(=O)C(COC(=O)Oc1cc(C(=O)N(C)C)c(NC(=O)c2ccccc2-c2ccc(C(F)(F)F)cc2)cc1F)(C(=O)OCC)c1ccccc1` [Example 2, 2-{5-Dimethylcarbamoyl-2-fluoro-4-[(4′-trifluoromethyl-biphenyl-2-carbonyl)amino]phenoxycarbonyloxymethyl}-2-phenylmalonic acid diethyl ester] was tested, and the IC50 was less than 10 nM.
`CCOC(=O)C(COC(=O)Oc1ccc2c(c1)N(C(C)C)C(=O)CN2C(=O)c1ccccc1-c1ccc(C(F)(F)F)cc1)(C(=O)OCC)c1ccccc1` [Example 2-2, 2-[4-Isopropyl-3-oxo-1-(4′-trifluoromethylbiphenyl-2-carbonyl)-1,2,3,4-tetrahydroquinoxalin-6-yloxycarbonyloxymethyl]-2-phenylmalonic acid diethyl ester] gave an IC50 of less than 10 nM.
For `CCOC(=O)C(COC(=O)Oc1ccc2c(c1)CCN2C(=O)c1ccccc1-c1ccc(C(F)(F)F)cc1)(C(=O)OCC)c1ccccc1` [Example 2-3], the IC50 was 10 to 100 nM.
`CCOC(=O)C(COC(=O)Oc1ccc(NC(=O)c2ccccc2-c2ccc(C(F)(F)F)cc2)c(C(=O)N(C)C)c1)(C(=O)OCC)c1ccccc1` [Example 2-4] gave an IC50 of less than 10 nM.
`CCOC(=O)C(COC(=O)OCc1ccc(NC(=O)c2ccccc2-c2ccc(C(F)(F)F)cc2)c(C(=O)N(C)C)c1)(C(=O)OCC)c1ccccc1` [Example 2-5] was tested, and the IC50 was less than 10 nM.
For `CCOC(=O)C(COC(=O)Oc1cc(C(=O)N(C)C)c(NC(=O)c2ccccc2-c2ccc(C(F)(F)F)cc2)cc1Cl)(C(=O)OCC)c1ccccc1` [Example 2-6], the IC50 was less than 10 nM.
`CCOC(=O)C(COC(=O)Oc1ccc(NC(=O)c2ccccc2-c2ccc(C(F)(F)F)cc2)c(C(=O)N(C)C)c1)(C(=O)OCC)c1cccs1` [Example 2-7] gave an IC50 of less than 10 nM.
In the case of `CCOC(=O)C(COC(=O)Oc1ccc(NC(=O)c2ccc(C)cc2-c2ccc(C(F)(F)F)cc2)c(C(=O)N(C)C)c1)(C(=O)OCC)c1ccccc1` [Example 2-8], the IC50 is reported as less than 10 nM.
In the case of `CCOC(=O)C(COC(=O)Oc1ccc(NC(=O)c2ccc(C)cc2-c2ccc(C(F)(F)F)cc2)c(C(=O)N(C)C)c1)(C(=O)OCC)c1cccs1` [Example 2-9], the IC50 is reported as less than 10 nM.
`CCNC(=O)C(COC(=O)Oc1ccc(NC(=O)c2ccccc2-c2ccc(C(F)(F)F)cc2)c(C(=O)N(C)C)c1)(C(=O)NCC)c1ccccc1` [Example 2-10] was tested, and the IC50 was less than 10 nM.
`CCNC(=O)C(COC(=O)Oc1cc(C(=O)N(C)C)c(NC(=O)c2ccccc2-c2ccc(C(F)(F)F)cc2)cc1F)(C(=O)NCC)c1ccccc1` [Example 2-11] showed an IC50 of 100 to 1000 nM.
Work on `CCOC(=O)C(COC(=O)Oc1ccc(NC(=O)c2ccccc2-c2ccc(C(F)(F)F)cc2)c(C(=O)N(C)CC)c1)(C(=O)OCC)c1ccccc1` [Example 2-12] yielded an IC50 of less than 10 nM.
With `CCCN(C)C(=O)c1cc(OC(=O)OCC(C(=O)OCC)(C(=O)OCC)c2ccccc2)ccc1NC(=O)c1ccccc1-c1ccc(C(F)(F)F)cc1` [Example 2-13] the IC50 was less than 10 nM.
`CCOC(=O)C(COC(=O)Oc1ccc(NC(=O)c2ccccc2-c2ccc(C(F)(F)F)cc2)c(C(=O)N2CCCC2)c1)(C(=O)OCC)c1ccccc1` [Example 2-14] was tested, and the IC50 was less than 10 nM.
`CCOC(=O)C(COC(=O)Oc1cc(C(=O)N(C)C)c(NC(=O)c2ccccc2-c2ccc(C(F)(F)F)cc2)cc1C)(C(=O)OCC)c1ccccc1` [Example 2-15] showed an IC50 of less than 10 nM.
`CCOC(=O)C(COC(=O)Oc1ccc(NC(=O)c2ccc(C(F)(F)F)nc2-c2ccc(C(F)(F)F)cc2)c(C(=O)N(C)C)c1)(C(=O)OCC)c1ccccc1` [Example 2-16] gave an IC50 of less than 10 nM.
For `CCOC(=O)C(COC(=O)Oc1ccc(N(C)C(=O)c2ccccc2-c2ccc(C(F)(F)F)cc2)c(C(=O)N(C)C)c1)(C(=O)OCC)c1ccccc1` [Example 2-17], the IC50 was 100 to 1000 nM.
`CCOC(=O)C(COC(=O)Oc1ccc(NC(=O)c2ccccc2-c2ccc(C(F)(F)F)cc2)c(C(=O)N(C)C)c1)(C(=O)OCC)c1ccccn1` [Example 2-18] gave an IC50 of less than 10 nM.
With `CCOC(=O)C(COC(=O)Oc1ccc(NC(=O)c2ccc(C)nc2-c2ccc(C(F)(F)F)cc2)c(C(=O)N(C)C)c1)(C(=O)OCC)c1ccccc1` [Example 2-19] the IC50 was less than 10 nM.
`CCOC(=O)C(COC(=O)Oc1c(F)cc(NC(=O)c2ccccc2-c2ccc(C(F)(F)F)cc2)c(C(=O)N(C)C)c1F)(C(=O)OCC)c1ccccc1` [Example 2-20] showed an IC50 of 10 to 100 nM.
`CCOC(=O)C(COC(=O)Oc1ccc(NC(=O)c2ccccc2-c2ccc(C(F)(F)F)cc2)c(C(=O)N(C)C)c1Cl)(C(=O)OCC)c1ccccc1` [Example 2-22] was tested, and the IC50 was less than 10 nM.
`CCOC(=O)C(COC(=O)Oc1ccc(NC(=O)c2ccc(C)nc2-c2ccc(C(F)(F)F)cc2)c(C(=O)N(C)C)c1)(C(=O)OCC)c1ccccn1` [Example 2-23] gave an IC50 of less than 10 nM.
With `CCOC(=O)C(COC(=O)Oc1ccc(NC(=O)c2cccnc2-c2ccc(C(F)(F)F)cc2)c(C(=O)N(C)C)c1)(C(=O)OCC)c1ccccc1` [Example 2-25] the IC50 was less than 10 nM.
`CCOC(=O)C(COC(=O)Oc1c(F)cc(NC(=O)c2ccccc2-c2ccc(C(F)(F)F)cc2)c(C(=O)N(C)C)c1F)(C(=O)OCC)c1cccs1` [Example 2-26] was tested, and the IC50 was less than 10 nM.
Compound `CCOC(=O)C(COC(=O)Oc1ccc(NC(=O)c2cnc(NC)nc2-c2ccc(C(F)(F)F)cc2)c(C(=O)N(C)C)c1)(C(=O)OCC)c1ccccc1` [Example 2-27] has an IC50 of 10 to 100 nM.
Compound `CCOC(=O)C(COC(=O)Oc1ccc(NC(=O)c2cnc(N(C)C)nc2-c2ccc(C(F)(F)F)cc2)c(C(=O)N(C)C)c1)(C(=O)OCC)c1ccccc1` [Example 2-28] has an IC50 of less than 10 nM.
For `CCOC(=O)C(COC(=O)Oc1c(F)cc(NC(=O)c2ccc(C)cc2-c2ccc(C(F)(F)F)cc2)c(C(=O)N(C)C)c1F)(C(=O)OCC)c1cccs1` [Example 2-29], the IC50 was less than 10 nM.
